How the values were obtained:
[1] = molecular target: Human HDAC8 (Homo sapiens (Human), UniProt Q9BY41); assay: HDAC8 fluorogenic peptide deacetylation assay; format: biochemical; conditions: human HDAC8, 50 μM substrate, 30° C., 2 h; read-out: IC50 (nM) of enzyme activity HDAC8
[2] = tested on: Nuclear Extract from HeLa Cells; assay: HeLa Nuclear Extract HDAC assay; format: biochemical, human; conditions: 50 μM substrate, 30° C., 2 h, read-out: IC50 (nM) of enzyme activity HeLa
[3] = tested on: BT474; assay: Cancer cell growth inhibition, BT474; format: cell-based; conditions: Homo sapiens, BT-474; BT474, Breast Cancer, 72 h treatment
Protocol: (§1) Cell culture-based assays were used to evaluate the ability of compounds of the invention to inhibit cancer cell growth inhibition.
(§2) Cells were obtained from the American Type Culture Collection (ATCC). Cells were cultured at 37° C. with 5% CO2 in the appropriate growth medium (see table below), and harvested respectively during the logarithmic growth period and counted with hemocytometer. The cell viability was over 98% by trypan blue exclusion. Cell concentrations were adjusted between 5×10^4 and 2×10^5 cells/ml with respective medium.
(§3) Stock solutions of test compounds and positive drugs Doxorubicin (Zhejiang, Haizheng, China), Paclitaxel (Beijing, Xiehe, China), Vincristin (Shenzhen Wanle, China), 5-FU (Tianjin jinyaoanjisuan, China), Irinotecan (Jiangsu Hengrui, China) and Cisplatin Nanjing zhiyao, China) were prepared in dimethyl sulphoxide (DMSO) or PBS at 20 mM.
(§4) All treatments were performed in triplicate. 10 μl drug solution was added to each well and incubated for 72 hours. At the end of the incubation, 20 μl of the freshly prepared MTS/PMS mixture solution was added to each well and incubated for 4 hours at 37° C. in a humidified, 5% CO2 atmosphere. Absorbance was read at 490 nm using SpectraMAX Plus microplate spectrophotometer. […] In order to calculate IC50, a dose-responsive curve was fitted using nonlinear regression model with a sigmoidal dose response.

[4] = tested on: MCF-7; assay: Cancer cell growth inhibition, MCF-7; format: cell-based, human; conditions: Homo sapiens, MCF7; MCF-7, Breast Cancer, 72 h treatment
Protocol: as §1, §2, §3, §4

[5] = tested on: MCF-7-218; assay: Cancer cell growth inhibition, MCF-7-218; format: cell-based; conditions: Homo sapiens; MCF-7-218, Breast Cancer, 72 h treatment
Protocol: as §1, §2, §3, §4

[6] = tested on: LNCaP; assay: Cancer cell growth inhibition, LNCaP; format: cell-based, human; conditions: Homo sapiens, Prostate Cancer, 72 h treatment
Protocol: as §1, §2, §3, §4

[7] = tested on: PC-3; assay: Cancer cell growth inhibition, PC-3; format: cell-based, human; conditions: Homo sapiens; PC-3, Prostate Cancer, 72 h treatment
Protocol: as §1, §2, §3, §4

[8] = tested on: Colo205; assay: Cancer cell growth inhibition, Colo205; format: cell-based; conditions: Homo sapiens, COLO 205; Colo205, Colorectal Cancer, 72 h treatment
Protocol: as §1, §2, §3, §4

[9] = tested on: DLD-1; assay: Cancer cell growth inhibition, DLD-1; format: cell-based, human; conditions: Homo sapiens; DLD-1, Colorectal Cancer, 72 h treatment
Protocol: as §1, §2, §3, §4

[10] = tested on: MIAPACA-2; assay: Cancer cell growth inhibition, MIAPACA-2; format: cell-based, human; conditions: Homo sapiens, MIA PaCa-2; MIAPACA-2, Pancreatic Cancer, 72 h treatment
Protocol: as §1, §2, §3, §4

[11] = tested on: Bx-PC-3; assay: Cancer cell growth inhibition, Bx-PC-3; format: cell-based, human; conditions: Homo sapiens, BXPC-3; Bx-PC-3, Pancreatic Cancer, 72 h treatment
Protocol: as §1, §2, §3, §4

[12] = tested on: PANC-1; assay: Cancer cell growth inhibition, PANC-1; format: cell-based, human; conditions: Homo sapiens; PANC-1, Pancreatic Cancer, 72 h treatment
Protocol: as §1, §2, §3, §4

[13] = tested on: 786-O; assay: Cancer cell growth inhibition, 786-O; format: cell-based, human; conditions: Homo sapiens, 786-0, Kindney Cancer, 72 h treatment
Protocol: as §1, §2, §3, §4

[14] = tested on: HepG2; assay: Cancer cell growth inhibition, HepG2; format: cell-based, human; conditions: Homo sapiens; HepG2, Liver Cancer, 72 h treatment
Protocol: as §1, §2, §3, §4

[15] = tested on: A375; assay: Cancer cell growth inhibition, A375; format: cell-based, human; conditions: Homo sapiens, A-375; A375, Melanoma, 72 h treatment
Protocol: as §1, §2, §3, §4

[16] = tested on: SK-MEL-5; assay: Cancer cell growth inhibition, SK-MEL-5; format: cell-based, human; conditions: Homo sapiens; SK-MEL-5, Melanoma, 72 h treatment
Protocol: as §1, §2, §3, §4

[17] = tested on: BGC823; assay: Cancer cell growth inhibition, BGC823; format: cell-based, human; conditions: Homo sapiens, BGC-823; BGC823, Gastric Cancer, 72 h treatment
Protocol: as §1, §2, §3, §4

[18] = tested on: SK-OV-3; assay: Cancer cell growth inhibition, SK-OV-3; format: cell-based, human; conditions: Homo sapiens; SK-OV-3, Ovarian Cancer, 72 h treatment
Protocol: as §1, §2, §3, §4

[19] = tested on: OVCAR3; assay: Cancer cell growth inhibition, OVCAR3; format: cell-based, human; conditions: Homo sapiens, OVCAR-3; OVCAR3, Ovarian Cancer, 72 h treatment
Protocol: as §1, §2, §3, §4

[20] = tested on: K562; assay: Cancer cell growth inhibition, K562; format: cell-based, human; conditions: Homo sapiens; K562, CML, 72 h treatment
Protocol: as §1
as §2, with “The cell viability was over 98% by trypan blue exclusion.” left out
as §3, §4

[21] = tested on: KB; assay: Cancer cell growth inhibition, KB; format: cell-based, human; conditions: Homo sapiens, Oral Cancer, 72 h treatment
Protocol: as §1, §2, §3, §4

[22] = tested on: RPMI-8226; assay: Cancer cell growth inhibition, RPMI-8226; format: cell-based, human; conditions: Homo sapiens; RPMI-8226, Orthotopic Multiple Myeloma, 72 h treatment
Protocol: as §1, §2, §3, §4

[23] = molecular target: Human HDAC10 (Homo sapiens (Human), UniProt Q969S8); assay: HDAC10 fluorogenic peptide deacetylation assay; format: biochemical; conditions: human HDAC10, 50 μM substrate, 30° C., 2 h; read-out: IC50 (nM) of enzyme activity HDAC10
Chain of Human HDAC10 (Q969S8 1-631): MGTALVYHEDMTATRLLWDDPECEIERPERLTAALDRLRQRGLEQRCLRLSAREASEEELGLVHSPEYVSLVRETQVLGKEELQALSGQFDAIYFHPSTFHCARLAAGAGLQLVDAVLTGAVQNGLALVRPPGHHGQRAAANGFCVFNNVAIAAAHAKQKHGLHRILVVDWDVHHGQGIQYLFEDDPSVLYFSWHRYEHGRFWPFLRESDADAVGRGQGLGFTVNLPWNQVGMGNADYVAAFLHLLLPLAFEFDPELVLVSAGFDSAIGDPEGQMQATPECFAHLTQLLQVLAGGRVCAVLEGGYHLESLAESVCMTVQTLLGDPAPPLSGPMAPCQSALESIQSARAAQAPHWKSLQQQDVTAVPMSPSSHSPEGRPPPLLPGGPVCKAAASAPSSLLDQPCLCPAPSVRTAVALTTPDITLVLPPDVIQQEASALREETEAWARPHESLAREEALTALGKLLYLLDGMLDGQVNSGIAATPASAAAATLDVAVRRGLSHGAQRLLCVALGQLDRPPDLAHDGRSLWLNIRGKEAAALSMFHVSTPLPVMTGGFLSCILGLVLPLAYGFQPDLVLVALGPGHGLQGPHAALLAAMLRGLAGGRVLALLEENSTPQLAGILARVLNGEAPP

[24] = molecular target: Human HDAC11 (Homo sapiens (Human), UniProt Q96DB2); assay: HDAC11 fluorogenic peptide deacetylation assay; format: biochemical; conditions: human HDAC11, 50 μM substrate, 30° C., 2 h; read-out: IC50 (nM) of enzyme activity HDAC11
Chain of Human HDAC11 (Q96DB2 whole entry): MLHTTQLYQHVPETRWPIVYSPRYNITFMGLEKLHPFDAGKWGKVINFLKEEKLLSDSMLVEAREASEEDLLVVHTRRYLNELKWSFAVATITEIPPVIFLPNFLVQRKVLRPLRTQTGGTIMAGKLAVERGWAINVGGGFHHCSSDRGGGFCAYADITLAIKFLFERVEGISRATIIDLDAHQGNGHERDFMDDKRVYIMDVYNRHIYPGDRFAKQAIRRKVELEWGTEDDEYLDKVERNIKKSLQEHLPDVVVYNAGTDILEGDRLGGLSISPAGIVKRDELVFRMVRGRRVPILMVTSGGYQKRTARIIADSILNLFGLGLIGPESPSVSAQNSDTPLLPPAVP

[25] = tested on: SW480; assay: Cancer cell growth inhibition, SW480; format: cell-based, human; conditions: Homo sapiens; SW480, Colorectal Cancer, 72 h treatment
Protocol: as §1, §2, §3, §4

[26] = tested on: NCI-N87; assay: Cancer cell growth inhibition, NCI-N87; format: cell-based, human; conditions: Homo sapiens; NCI-N87, Gastric Cancer, 72 h treatment
Protocol: as §1, §2, §3, §4

Chain of Human HDAC8 (Q9BY41 whole entry): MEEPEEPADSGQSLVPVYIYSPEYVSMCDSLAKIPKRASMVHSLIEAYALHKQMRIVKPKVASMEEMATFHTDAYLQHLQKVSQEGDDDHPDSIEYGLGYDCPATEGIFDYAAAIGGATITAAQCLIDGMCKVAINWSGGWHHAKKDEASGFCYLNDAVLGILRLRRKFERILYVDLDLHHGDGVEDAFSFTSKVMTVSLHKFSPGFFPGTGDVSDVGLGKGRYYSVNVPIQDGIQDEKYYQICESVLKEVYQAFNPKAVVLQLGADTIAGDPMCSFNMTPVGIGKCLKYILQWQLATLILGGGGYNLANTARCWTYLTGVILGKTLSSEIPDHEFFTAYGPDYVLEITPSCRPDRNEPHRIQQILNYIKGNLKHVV

Row | IC50 [1] | IC50 [2] | IC50 [3] | IC50 [4] | IC50 [6] | IC50 [7] | IC50 [8] | IC50 [9] | IC50 [10] | IC50 [11] | IC50 [12] | IC50 [13] | IC50 [14] | IC50 [15] | IC50 [16] | IC50 [17] | IC50 [18] | IC50 [19] | IC50 [21] | IC50 [22] | Compound | other results
1 | 227 nM | 26 nM | 3.63 µM | 4.49 µM | 9.91 µM | 3 µM | 4.91 µM | 6.87 µM | 2.81 µM | 7.73 µM | 10.7 µM | 13.4 µM | 5.01 µM | 10.2 µM | 3.33 µM | 9.68 µM | 4.17 µM | 9.99 µM | 2.96 µM | 1.31 µM | O=C(NO)c1ccc(CNC(=O)c2[nH]c(-c3ccoc3)cc2-c2ccc(O)cc2)cc1 [Example 9, 5-(3-furyl)-N-{4-[(hydroxyamino)carbonyl]benzyl}-3-(4-hydroxyphenyl)-1H-pyrrole-2-carboxamide] | IC50 [5]: 12.8 µM; IC50 [20]: 1.04 µM
2 | 64.1 nM | 6.7 nM | 1.63 µM | 10.1 µM | 4.11 µM | 2.41 µM | 1.56 µM | 24.5 µM | 0.428 µM | 6.83 µM | 9.84 µM | 8.66 µM | 2.01 µM | 7.7 µM | 0.851 µM | 13.7 µM | 1.63 µM | 25.2 µM | 0.702 µM | 0.336 µM | O=C(NO)c1ccc(CNC(=O)c2[nH]c(-c3ccc(O)cc3)cc2-c2ccsc2)cc1 [Example 14, N-{4-[(hydroxyamino)carbonyl]benzyl}-5-(4-hydroxyphenyl)-3-(3-thienyl)-1H-pyrrole-2-carboxamide] | IC50 [23]: 316 nM; IC50 [24]: 319 nM; IC50 [5]: 37.6 µM; IC50 [20]: 1.3 µM; melting point: 121 to 122 °C
3 | 74.8 nM | 3.4 nM | 0.442 µM | 2.09 µM | 1.72 µM | 0.281 µM | 0.365 µM | 4.48 µM | 0.27 µM | 2.25 µM | 6.45 µM | 2.29 µM | 2.28 µM | 3.68 µM | 0.292 µM | 5.14 µM | 0.651 µM | 8.05 µM | 0.184 µM | 0.426 µM | O=C(NO)c1ccc(CNC(=O)c2[nH]c(-c3ccc(O)cc3)cc2-c2ccoc2)cc1 [Example 15, 3-(3-furyl)-N-{4-[(hydroxyamino)carbonyl]benzyl}-5-(4-hydroxyphenyl)-1H-pyrrole-2-carboxamide] | IC50 [23]: 35 nM; IC50 [24]: 72 nM; IC50 [5]: 26.5 µM; IC50 [20]: 0.739 µM
4 | 148 nM | 3.9 nM | 0.119 µM | 0.377 µM | 0.366 µM | 0.42 µM | 0.248 µM | 0.592 µM | 0.881 µM | 0.775 µM | 0.965 µM | 1.91 µM | 0.498 µM | 1.04 µM | 0.256 µM | 0.676 µM | 1.67 µM | 0.904 µM | 0.315 µM | 0.0586 µM | COc1ccc(-c2cc(-c3ccoc3)c(C(=O)NCc3ccc(C(=O)NO)cc3)[nH]2)cc1 [Example 27, 3-(3-furyl)-N-{4-[(hydroxyamino)carbonyl]benzyl}-5-(4-methoxyphenyl)-1H-pyrrole-2-carboxamide] | IC50 [24]: 341 nM; IC50 [25]: 0.574 µM; IC50 [26]: 0.153 µM
5 | 174 nM | 22 nM | 12.9 µM | 2.77 µM | 3.07 µM | 1.31 µM | 3.1 µM | 3.22 µM | 7.52 µM | 8.28 µM | 11.5 µM | 10 µM | 1.77 µM | 4.27 µM | 3.79 µM | 7.79 µM | 8.43 µM | 4.76 µM | 3.43 µM | 0.462 µM | COc1ccc(-c2cc(-c3ccsc3)c(C(=O)NCc3ccc(C(=O)NO)cc3)[nH]2)cc1 [Example 28, N-{4-[(hydroxyamino)carbonyl]benzyl}-5-(4-methoxyphenyl)-3-(3-thienyl)-1H-pyrrole-2-carboxamide] | IC50 [23]: 723 nM; IC50 [24]: 718 nM; IC50 [25]: 2.38 µM; IC50 [26]: 1.48 µM; IC50 [20]: 1.37 µM
